Assay results as given in PubChem BioAssay AID192 (DTP/NCI, 2004).
Several values for one entry are separate records, joined by “and”; a condition that tells them apart may be missing. Identical values can stand only once. Toxic doses and inconclusive results are not listed. Peptide text beside a SMILES is read from it. * marks the point of attachment. Cbz = O=C(OCc1ccccc1)*

Test system: BDF1 mice, B16 melanoma ip, median survival T/C
Assay: NCI In Vivo Anticancer Drug Screen. Data for tumor model B16 Melanoma (intraperitoneal) in B6D2F1 (BDF1) mice
Settings: endpoint: median survival time, higher = longer survival
Procedure, shortened: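 Each result divides a survival or tumor-size measurement in the compound-treated group by the same measurement in the vehicle group.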

[1] = dose: 12.5 mg/kg/injection, schedule: Q01DX009 (ip), vehicle: saline
[2] = dose: 25.0 mg/kg/injection, schedule: Q01DX009 (ip), vehicle: saline
[3] = dose: 50.0 mg/kg/injection, schedule: Q01DX009 (ip), vehicle: saline
[4] = dose: 100.0 mg/kg/injection, schedule: Q01DX009 (ip), vehicle: saline
[5] = dose: 200.0 mg/kg/injection, schedule: Q01DX009 (ip), vehicle: saline
[6] = dose: 100.0 mg/kg/injection, schedule: Q01DX009 (ip), vehicle: saline with Tween-80
[7] = dose: 200.0 mg/kg/injection, schedule: Q01DX009 (ip), vehicle: saline with Tween-80
[8] = dose: 400.0 mg/kg/injection, schedule: Q01DX009 (ip), vehicle: saline with Tween-80
[9] = dose: 12.5 mg/kg/injection, schedule: Q01DX009 (ip), vehicle: saline with Tween-80
[10] = dose: 25.0 mg/kg/injection, schedule: Q01DX009 (ip), vehicle: saline with Tween-80
[11] = dose: 50.0 mg/kg/injection, schedule: Q01DX009 (ip), vehicle: saline with Tween-80
[12] = dose: 25.0 mg/kg/injection, schedule: Q01DX009 (ip), vehicle: water
[13] = dose: 50.0 mg/kg/injection, schedule: Q01DX009 (ip), vehicle: water
[14] = dose: 100.0 mg/kg/injection, schedule: Q01DX009 (ip), vehicle: water
[15] = dose: 100.0 mg/kg/injection, schedule: Q01DX009 (ip), vehicle: Klucel (hydroxypropylcellulose) (HPC)
[16] = dose: 200.0 mg/kg/injection, schedule: Q01DX009 (ip), vehicle: Klucel (hydroxypropylcellulose) (HPC)
[17] = dose: 400.0 mg/kg/injection, schedule: Q01DX009 (ip), vehicle: Klucel (hydroxypropylcellulose) (HPC)
[18] = dose: 50.0 mg/kg/injection, schedule: Q01DX009 (ip), vehicle: Klucel (hydroxypropylcellulose) (HPC)
[19] = dose: 6.25 mg/kg/injection, schedule: Q01DX009 (ip), vehicle: saline with Tween-80
[20] = dose: 6.25 mg/kg/injection, schedule: Q01DX009 (ip), vehicle: saline
[21] = dose: 12.5 mg/kg/injection, schedule: Q01DX009 (ip), vehicle: Klucel (hydroxypropylcellulose) (HPC)
[22] = dose: 25.0 mg/kg/injection, schedule: Q01DX009 (ip), vehicle: Klucel (hydroxypropylcellulose) (HPC)

With `CCCC1(CCC)CN(C)C1=O` the T/C [1] was 91 % of control, the T/C [2] was 89 % of control and the T/C [3] was 100 % of control. For the same molecule, the T/C [4] was 106 % of control and the T/C [5] was 93 % of control.
`CC1=C(c2cc3ccccc3c3ccccc23)CCCC1` was tested, and the T/C [6] was 90 % of control, the T/C [7] was 88 % of control and the T/C [8] was 91 % of control.
In the case of `COc1cc2c[n+](C)c3c4cc5c(cc4ccc3c2cc1OC)OCO5`, the T/C (dose: 5.0 mg/kg/injection, schedule: Q01DX009 (ip), vehicle: water) is reported as 122 % of control, the T/C [9] is reported as 113 % of control and the T/C [10] is reported as 115 % of control. For the same molecule, the T/C (dose: 40.0 mg/kg/injection, schedule: Q01DX009 (ip), vehicle: water) was 120 % of control and the T/C [11] was 97 % of control.
`CCc1ccc(NC(=O)Nc2ccc(Cl)cc2)cc1` was tested, and the T/C (dose: 100.0 mg/kg/injection, schedule: Q01DX009 (ip), vehicle: gum acacia) was 89 % of control, the T/C (dose: 200.0 mg/kg/injection, schedule: Q01DX009 (ip), vehicle: gum acacia) was 98 % of control and the T/C (dose: 400.0 mg/kg/injection, schedule: Q01DX009 (ip), vehicle: gum acacia) was 93 % of control.
In the case of `CC1(C)C=CC2=C(O1)C(=O)c1ccccc1C2=O`, the T/C [12] is reported as 104 % of control, the T/C [13] is reported as 99 % of control and the T/C [14] is reported as 93 % of control. The T/C (dose: 200.0 mg/kg/injection, schedule: Q01DX009 (ip), vehicle: water) was 91 % of control.
For `[Cl][Pt+2][Br].[NH-]CC[NH-]`, the T/C (dose: 0.47 mg/kg/injection, schedule: Q04DX003 (ip), vehicle: saline with Tween-80) was 110 % of control, the T/C (dose: 0.5 mg/kg/injection, schedule: Q01DX009 (ip), vehicle: saline) was 110 % of control and the T/C (dose: 0.95 mg/kg/injection, schedule: Q04DX003 (ip), vehicle: saline with Tween-80) was 118 % of control. The T/C (dose: 1.0 mg/kg/injection, schedule: Q01DX009 (ip), vehicle: saline) was 110 % of control, the T/C (dose: 1.9 mg/kg/injection, schedule: Q04DX003 (ip), vehicle: saline with Tween-80) was 105 % of control and the T/C (dose: 2.0 mg/kg/injection, schedule: Q01DX009 (ip), vehicle: saline) was 110 % of control.
`Cc1ccc(N=NN(C)C)cc1` was tested, and the T/C [9] was 113 % of control, the T/C [10] was 115 % of control and the T/C [11] was 106 % of control.
With `OC(C#Cc1ccccc1)c1ccccc1` (stereo not given) the T/C (dose: 50.0 mg/kg/injection, schedule: Q04DX003 (ip), vehicle: saline with Tween-80) was 108 % of control, the T/C (dose: 100.0 mg/kg/injection, schedule: Q04DX003 (ip), vehicle: saline with Tween-80) was 97 % of control and the T/C (dose: 200.0 mg/kg/injection, schedule: Q04DX003 (ip), vehicle: saline with Tween-80) was 98 % of control.
In the case of `O=C(Nc1ccc(Br)cc1)c1ccc(Cl)c(Cl)c1`, the T/C [15] is reported as 118 % of control, the T/C [16] is reported as 114 % of control and the T/C [17] is reported as 114 % of control.
`CC(=O)OCC1OC(S[As](C)C)C(OC(C)=O)C(OC(C)=O)C1OC(C)=O` (stereo not given) was tested, and the T/C [18] was 107 % of control and the T/C [15] was 96 % of control.
For `Cl/C=C(\Cl)CCl`, the T/C [19] was 108 % of control and the T/C [9] was 90 % of control.
For `CCCCCCCCCCCCCCCc1ccc(C(=O)C[n+]2ccccc2)cc1`, the T/C (dose: 3.12 mg/kg/injection, schedule: Q01DX009 (ip), vehicle: saline with Tween-80) was 102 % of control, the T/C [19] was 100 % of control and the T/C [9] was 95 % of control. The T/C [10] was 93 % of control.
In the case of `O=NN(CCF)C(=O)N[C@H]1CCCC[C@H]1O`, the T/C (dose: 3.75 mg/kg/injection, schedule: Q01DX001 (ip), vehicle: saline) is reported as 100 % of control, the T/C (dose: 7.5 mg/kg/injection, schedule: Q01DX001 (ip), vehicle: saline) is reported as 105 % of control and the T/C (dose: 15.0 mg/kg/injection, schedule: Q01DX001 (ip), vehicle: saline) is reported as 101 % of control. The T/C (dose: 60.0 mg/kg/injection, schedule: Q01DX001 (ip), vehicle: saline) was 222 % of control.
In the case of `CC(C)CC(NC(=O)C(Cc1ccccc1)NC(=O)OCc1ccccc1)C(=O)O` (stereo not drawn) (Cbz-Phe-Leu-OH; configuration not given here), the T/C [10] is reported as 92 % of control, the T/C [11] is reported as 93 % of control and the T/C [6] is reported as 90 % of control. For the same molecule, the T/C [7] was 87 % of control.
In the case of `CCCC(C(=O)O)C1=CCCC1` (stereo not given), the T/C [10] is reported as 115 % of control, the T/C [11] is reported as 112 % of control and the T/C [6] is reported as 103 % of control.
In the case of `C(CSC1=NCCN1)CSC1=NCCN1`, the T/C [20] is reported as 97 % of control and 102 % of control, the T/C [1] is reported as 98 % of control and 107 % of control and the T/C [2] is reported as 105 % of control and 107 % of control. The T/C [3] was 96 % of control and 117 % of control, the T/C [4] was 101 % of control and 112 % of control and the T/C [5] was 107 % of control.
For `NC1c2cc(Cl)ccc2-c2c(Cl)cc(Cl)cc21` (stereo not given), the T/C [6] was 109 % of control, the T/C [7] was 111 % of control and the T/C [8] was 102 % of control.
With `CC(Cc1ccccc1)NC(C#N)c1ccccc1` (stereo not given) the T/C (dose: 6.25 mg/kg/injection, schedule: Q01DX009 (ip), vehicle: Klucel (hydroxypropylcellulose) (HPC)) was 100 % of control, the T/C [21] was 87 % of control and the T/C [22] was 90 % of control.
`NC(CC(=O)CCl)C(=O)O` (stereo not given) was tested, and the T/C (dose: 3.13 mg/kg/injection, schedule: Q01DX009 (ip), vehicle: saline) was 109 % of control and the T/C [20] was 118 % of control.
For `Nc1ncnc2sc3c(c12)CCCC3`, the T/C [15] was 100 % of control, the T/C [16] was 101 % of control and the T/C [17] was 110 % of control.
In the case of `c1ccc(N/N=C2/CCN3CCCc4cccc2c43)cc1`, the T/C (dose: 25.0 micrograms/kg/injection, schedule: Q01DX009 (ip), vehicle: DMSO) is reported as 86 % of control.
`C[C@H](CCC(=O)O)[C@H]1CC[C@H]2[C@@H]3[C@H](O)C[C@@H]4C[C@H](O)CC[C@]4(C)[C@H]3C[C@H](O)[C@]12C` (tested in a mixture with another compound) was tested, and the T/C [3] was 102 % of control, the T/C [4] was 109 % of control and the T/C [5] was 111 % of control.
In the case of `c1ccc(CN2CCNCC2)cc1`, the T/C [20] is reported as 108 % of control, the T/C [1] is reported as 108 % of control and the T/C [2] is reported as 106 % of control.
For `O=C(O)c1cccc2c1S(=O)(=O)c1ccccc1C2=O`, the T/C (dose: 75.0 mg/kg/injection, schedule: Q01DX009 (ip), vehicle: Klucel (hydroxypropylcellulose) (HPC)) was 100 % of control, the T/C (dose: 150.0 mg/kg/injection, schedule: Q01DX009 (ip), vehicle: Klucel (hydroxypropylcellulose) (HPC)) was 97 % of control and the T/C (dose: 300.0 mg/kg/injection, schedule: Q01DX009 (ip), vehicle: Klucel (hydroxypropylcellulose) (HPC)) was 100 % of control.
In the case of `Nc1ccccc1S(=O)(=O)Nc1ccccc1`, the T/C [15] is reported as 96 % of control, the T/C [16] is reported as 107 % of control and the T/C [17] is reported as 110 % of control.
For `CCC(C)C1CCCCC1` (stereo not given), the T/C [15] was 91 % of control, the T/C [16] was 108 % of control and the T/C [17] was 98 % of control.
`CCOC(=O)C(O)C(C#N)c1ccccc1` (stereo not given) was tested, and the T/C (dose: 100.0 mg/kg/injection, schedule: Q01DX009 (ip), vehicle: other) was 98 % of control, the T/C (dose: 200.0 mg/kg/injection, schedule: Q01DX009 (ip), vehicle: other) was 99 % of control and the T/C (dose: 400.0 mg/kg/injection, schedule: Q01DX009 (ip), vehicle: other) was 107 % of control.
With `C[C@H]1CCC/C=C/[C@@H]2C[C@H](O)C[C@H]2[C@H](O)/C=C/C(=O)O1` the T/C (dose: 2.5 mg/kg/injection, schedule: Q01DX009 (ip), vehicle: Klucel (hydroxypropylcellulose) (HPC)) was 116 % of control, the T/C (dose: 5.0 mg/kg/injection, schedule: Q01DX009 (ip), vehicle: Klucel (hydroxypropylcellulose) (HPC)) was 104 % of control and the T/C (dose: 10.0 mg/kg/injection, schedule: Q01DX009 (ip), vehicle: Klucel (hydroxypropylcellulose) (HPC)) was 103 % of control.
In the case of `N=C(N)SCc1cccc([N+](=O)[O-])c1`, the T/C [21] is reported as 93 % of control, the T/C [22] is reported as 103 % of control and the T/C [18] is reported as 97 % of control.
With `O=C(O)c1nnc(C(=O)O)nn1` the T/C (dose: 12.5 mg/kg/injection, schedule: Q01DX009 (ip), vehicle: water) was 101 % of control, the T/C [12] was 96 % of control and the T/C [13] was 106 % of control. The T/C [14] was 100 % of control.
In the case of `C(=N\Nc1nn[nH]n1)/c1ccncc1`, the T/C [15] is reported as 103 % of control and the T/C [16] is reported as 104 % of control.
In the case of `Nc1nc(-c2ccccc2N=NN2CCCCC2)nc2ccccc12`, the T/C (dose: 50.0 mg/kg/injection, schedule: Q04DX003 (ip), vehicle: Klucel (hydroxypropylcellulose) (HPC)) is reported as 97 % of control, the T/C (dose: 100.0 mg/kg/injection, schedule: Q04DX003 (ip), vehicle: Klucel (hydroxypropylcellulose) (HPC)) is reported as 91 % of control and the T/C (dose: 200.0 mg/kg/injection, schedule: Q04DX003 (ip), vehicle: Klucel (hydroxypropylcellulose) (HPC)) is reported as 113 % of control.
